Key:
[1] = system: Escherichia coli K-12 (MG1655); type: cell-based; conditions: for repression of antimicrobial activity by human serum: E. coli 10^6 cfu/ml, 5% human serum (v/v) compared with PBS, mean ± SD n = 3
Description: The Gram-negative bacteria Escherichia coli K-12 (MG1655) was cultured and plated in/on Luria–Bertani broth/agar plate (Merck Millipore, Darmstadt, Germany). The bacteria were grown overnight, washed, and diluted 1:2000 in phosphate buffered saline (PBS), pH 7.4. Bacteria (ca. 1 × 10^6 colony-forming units, cfu/ml) was mixed with antimicrobial peptides (AMP) in 100 µl PBS and incubated at 37 °C. Serial dilutions of each AMP-treated bacteria in the presence of human sera, proteins or lipids were prepared and plated for determination of remaining viable cells (expressed as cfu). At least three independent experiments were performed for each assay to determine the mean value with standard deviation (SD)[31].
For all in vitro antimicrobial assays, the average value with standard deviation (SD) was determined from at least three independent experiments. Mann–Whitney test and Kruskal–Wallis tests were performed to determine the significance. For lipid quantification, the average value with standard deviation (SD) was determined from at least three independent experiments and One-way ANOVA test was performed to determine the significance of the difference in the measured values. P < 0.05 was considered to be statistically significant.

HDL = experiment: Band shift of AMPs by HDL on horizontal native PAGE; type: binding, human; conditions: AMP 4 µg, agents 10 µg or lipids 4 µg in BSA, 8% horizontal native PAGE
Description: (§1) Various AMPs (4 µg each) were incubated with human serum, isolated components or lipid at the indicated concentrations at room temperature in 10 µl PC buffer (20 mM HEPES, pH7.4, 50 mM NaCl) for 30 min, subjected to horizontal native 8% polyacrylamide gel electrophoreses (PAGE), pH8.0/pH8.8, and stained with Coomassie Blue.

human serum = experiment: Band shift of AMPs in human serum on horizontal native PAGE; type: binding; conditions: AMP 4 µg in 10 µl diluted human serum, 5–40% (v/v), 8% horizontal native PAGE, Coomassie blue
Description: as §1

human albumin = conditions: cited from earlier work

In the case of “Pleurocidin: antimicrobial peptide from Pleuronectes amertcanus (GWGSFFKKAAHVGKHVGKAALTHYL)”, the “repression of antimicrobial activity by human serum” value [1] is reported as “not at all observed”, the “fold increase of LC99 in 5% human serum over PBS” value ([1]; E. coli, LC99 in 5% human serum versus PBS) is reported as “one” and the “bactericidal activity in presence of purified S50, E5, Apo-AI, PC, SM, CO and HDL” value ([1]; E. coli, NRC12 16 mg/L, Pleurocidin 8 mg/L) is reported as “resistant”. The “band shift by purified S50, E5, Apo-AI, PC, SM, CO and HDL” value (HDL) was “resistant” and the “band shift of AMP in human serum” value (human serum) was “not shifted”.

For `CC(=O)CC(c1ccccc1)c1c(O)c2ccccc2oc1=O` (centres unmarked) [warfarin], the “fraction bound to human albumin” value (human albumin; human albumin drug binding site I (warfarin) and site II (ibuprofen)) is given as “more than 90%”.

For daptomycin, the “fraction bound and inhibited by albumin” value (human albumin; human serum) is given as 90–94%.

With Polymyxin B the “repression of antimicrobial activity by human serum” value [1] was “not at all observed” and the “band shift of AMP in human serum” value (human serum) was “not shifted”.

With `CC[C@H](C)[C@H](NC(=O)[C@H](CCCCN)NC(=O)[C@H](CCC(=O)O)NC(=O)[C@H](CCCCN)NC(=O)[C@H](CO)NC(=O)[C@H](CCCCN)NC(=O)[C@H](CCCNC(=N)N)NC(=O)[C@H](Cc1ccccc1)NC(=O)[C@H](Cc1ccccc1)NC(=O)[C@H](CC(=O)O)NC(=O)CNC(=O)[C@H](CC(C)C)NC(=O)[C@@H](N)CC(C)C)C(=O)NCC(=O)N[C@@H](CCCCN)C(=O)N[C@@H](CCC(=O)O)C(=O)N[C@@H](Cc1ccccc1)C(=O)N[C@@H](CCCCN)C(=O)N[C@@H](CCCNC(=N)N)C(=O)N[C@H](C(=O)N[C@H](C(=O)N[C@@H](CCC(N)=O)C(=O)N[C@@H](CCCNC(=N)N)C(=O)N[C@H](C(=O)N[C@@H](CCCCN)C(=O)N[C@@H](CC(=O)O)C(=O)N[C@@H](Cc1ccccc1)C(=O)N[C@@H](CC(C)C)C(=O)N[C@@H](CCCNC(=N)N)C(=O)N[C@@H](CC(N)=O)C(=O)N[C@@H](CC(C)C)C(=O)N[C@H](C(=O)N1CCC[C@H]1C(=O)N[C@@H](CCCNC(=N)N)C(=O)N[C@H](C(=O)N[C@@H](CCC(=O)O)C(=O)N[C@@H](CO)C(=O)O)[C@@H](C)O)C(C)C)[C@@H](C)CC)C(C)C)[C@@H](C)CC` [LL37] the “LC99 in 5% human serum” value ([1]; E. coli, cfu counting, 5% human serum, LC99 = lowest AMP concentration that kills 99% of the original inoculum, 37 °C) was over 512 mg/L and the “LC99 in PBS” value ([1]; E. coli, cfu counting, PBS pH 7.4, LC99 = lowest AMP concentration that kills 99% of the original inoculum, 37 °C) was 16 mg/L.

— publication PMC8850444, “The lipid components of high-density lipoproteins (HDL) are essential for the binding and transportation of antimicrobial peptides in human serum” (Scientific Reports, 2022)
